# Source: patent publication US20180264134A1, “A COMPOSITION OF GOLD NANOPARTICLES HAVING ANTIMICROBIAL PEPTIDES BOUND ON THEIR SURFACE FOR USE THE TREATMENT OF WOUND HEALING OR IN THE TREATMENT OF ISCHEMIC OR VASCULAR DISEASES OR IN THE TREATMENT OF SKIN DISORDERS” (priority 2015, published 2018)
# Where “and” joins values, the source holds several entries; their conditions need not be identical. Equal values may be shown once.
# What was measured:
# [1] = system: HUVECs; assay: VEGF secretion in HUVECs (ELISA); assay type: cell-based, human; conditions: 24 h, LL37 5 μg/mL, NPs 200 μg/mL
# Method: In an embodiment measurement of VEGF amount in HUVECs can be perform by the following method: HUVECs were seeded at a density of 4×10^4 cells/cm^2 in 24-well plates and cultured for 24 h in EGM-2 without VEGF. LL-37 (5 μg/mL), LL37 AUNPs and AuNPs (200 μg/mL) suspended in culture medium without VEGF at different concentrations were added to cells. LL-37 (5 μg/mL) and LL-37 AUNPs (200 μg/mL) were also incubated in the presence of 10 μM of FPRL1 Antagonist. After 24 h of incubation, cell media from all the conditions were collected and used to quantify VEGF amount in supernatants. In order to calculate the amount of VEGF in supernatants, Human VEGF ELISA development Kit (PeproTech) was used according to the manufacture's instructions. A calibration curve was used for the ranging between 0-1000 pg/mL VEGF.
# [2] = system: full-thickness excisional wounds; assay: In vivo wound healing, splinted mouse full thickness excisional model; set-up: species or system RjHan:NMRI female mice
# Description: For measure some parameters In vivo wound healing and tissue collection can be use. 6-7 week old RjHan:NMRI female mice (Janvier, BE) were anesthesized with isoflurane and the dorsal area was shaved using a depilatory cream a day before the surgery. Two 0.5-mm-thick silicone (Grace biolabs, UK) donut-shaped splints (OD=20 mm, ID=10 mm) were fixed on either side of the dorsal midline, approximately 3.5 cm from the ears and positioned with 6-0 nylon sutures (Monosof, USA). Full-thickness excisional wounds were made using an 8 mm round skin biopsy punch (Kai Europe GMBH, DE), centered within each splint. […] Wound areas were quantified using the Jmicro Vision software developed by N. Roduit at University of Geneva, Switzerland. Wound sizes are expressed as percentage of the initial respective wound. […]
# In an embodiment, histology and immunohistochemistry assay were conducted: the wound halves were immediately fixed with paraformaldehyde (4% in PBS, 0.01 M, pH 7.4) and after 24 h, the samples were transferred to PBS buffer at 4° C. […] A semi-quantitative estimation of MT green staining was performed using FRIDA software (developed by Johns Hopkins University, USA) and the staining values were expressed as staining per unit area. […]
# [3] = system: EGFR; assay: EGFR phosphorylation in HaCaT (ELISA); assay type: cell-based, human; conditions: LL37 5 μg/mL; LL37-Au NPs 15 or 200 μg/mL
# Method: In an embodiment the detection of EGFR and ERK1/2 phosphorylation, can be perform by: the activation of EGFR receptor in HaCaT (80% confluency, in 6-well plates) was induced by starving the cells for 24 h in DMEM supplemented with 1% (v/v) penicillin and adding soluble LL37, LL37-Au NPs and Au NPs for a given period of time. Following treatment, the plates were immersed in ice and the medium was discarded. Then the proteins were isolated from the cells . . . . The levels of EGFR (phosphorylated EGFR and total EGFR) were determined by ELISA kit (R&D Systems). The activation of ERK signaling pathways in HaCaT (80% confluency, in one 96-well cell culture clear-bottom black microplate) were obtained starving the cells for 24 h in DMEM supplemented with 1% (v/v) penicillin and then stimulating them with soluble LL37 (5 μg/mL), LL37-Au NPs and Au NPs (200 μg/mL). After treatments the level of ERK were determined using a phosphoprotein and total protein ELISA kit (R&D Systems ref. KCB1018) according to the manufacture's instructions. Data were acquired with a BioTek synergy MX microplate reader.
smiles,measurement,setting,value
CC[C@H](C)[C@H](NC(=O)[C@H](CCCCN)NC(=O)[C@H](CCC(=O)O)NC(=O)[C@H](CCCCN)NC(=O)[C@H](CO)NC(=O)[C@H](CCCCN)NC(=O)[C@H](CCCNC(=N)N)NC(=O)[C@H](Cc1ccccc1)NC(=O)[C@H](Cc1ccccc1)NC(=O)[C@H](CC(=O)O)NC(=O)CNC(=O)[C@H](CC(C)C)NC(=O)[C@@H](N)CC(C)C)C(=O)NCC(=O)N[C@@H](CCCCN)C(=O)N[C@@H](CCC(=O)O)C(=O)N[C@@H](Cc1ccccc1)C(=O)N[C@@H](CCCCN)C(=O)N[C@@H](CCCNC(=N)N)C(=O)N[C@H](C(=O)N[C@H](C(=O)N[C@@H](CCC(N)=O)C(=O)N[C@@H](CCCNC(=N)N)C(=O)N[C@H](C(=O)N[C@@H](CCCCN)C(=O)N[C@@H](CC(=O)O)C(=O)N[C@@H](Cc1ccccc1)C(=O)N[C@@H](CC(C)C)C(=O)N[C@@H](CCCNC(=N)N)C(=O)N[C@@H](CC(N)=O)C(=O)N[C@@H](CC(C)C)C(=O)N[C@H](C(=O)N1CCC[C@H]1C(=O)N[C@@H](CCCNC(=N)N)C(=O)N[C@H](C(=O)N[C@@H](CCC(=O)O)C(=O)N[C@@H](CO)C(=O)N[C@@H](CS)C(N)=O)[C@@H](C)O)C(C)C)[C@@H](C)CC)C(C)C)[C@@H](C)CC [LL37],secretion of VEGF165,[1],induce the secretion
same,wound healing,"[2]; after 10 days, LL37 70 μg per wound, listed as LL37 peptide",50% and 70%
same,MPO activity in wound tissue,[2]; day 10,significantly decreased
same,persistence of EGFR phosphorylation,[3],10 min
same,time of peak EGFR phosphorylation,[3],8 min
